Reference: patent US20190345138A1, “HETEROCYCLIC AMIDES AS KINASE INHIBITORS” (GlaxoSmithKline Intellectual Property Development Limited, priority 2016, published 2019)
“And” between values parts separate entries of the source, which are not always exact repeats. Identical values can stand only once.

Columns and labels:
RIP1 kinase = molecular target: T1, RIP1 kinase (Homo sapiens, UniProt Q13546); assay: fluorescent polarization based binding assay; details: mean of a minimum of 2 experiments
T1 sequence (Q13546 1-375 limits assumed): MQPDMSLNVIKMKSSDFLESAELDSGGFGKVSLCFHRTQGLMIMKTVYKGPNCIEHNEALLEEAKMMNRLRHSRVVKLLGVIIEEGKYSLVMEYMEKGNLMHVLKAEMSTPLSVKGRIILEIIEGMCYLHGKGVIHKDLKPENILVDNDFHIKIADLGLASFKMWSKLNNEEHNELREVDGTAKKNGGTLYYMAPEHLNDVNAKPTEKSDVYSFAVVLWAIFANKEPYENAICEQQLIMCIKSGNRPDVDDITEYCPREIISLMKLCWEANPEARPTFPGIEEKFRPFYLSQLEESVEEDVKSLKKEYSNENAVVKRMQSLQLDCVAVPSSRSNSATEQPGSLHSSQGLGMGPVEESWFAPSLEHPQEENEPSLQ
Excerpt: A fluorescent polarization based binding assay was used to assess the activity of the compounds of this invention, the details of which are disclosed in International Patent Appln. No. PCT/IB2014/059004, now, International Patent Appln. Pub.

[1] = tested on: human monocytic leukemia U937 cells; assay: necroptosis assay in U937 cells; assay type: cell-based; details: Homo sapiens, U-937, U937 cells; viability by cellular ATP (Cell Titer-Glo); read-out: pIC50, inhibited necrosis in U937 cells (converted)
Outline: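 Necroptosis was induced in human U937 or mouse L929 cells, and viability was quantified as cellular ATP with Cell Titer-Glo. Data are means±standard deviation.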

IC50 (RIP1 kinase) | Compound | IC50 [1] [nM]
1 to 31.6 nM | NC(=O)c1nc(N2CCC(C(=O)N3N=CC[C@H]3c3cncc(F)c3)CC2)ncc1Cl [Example 124, (S)-5-chloro-2-(4-(5-(5-fluoropyridin-3-yl)-4,5-dihydro-1H-pyrazole-1-carbonyl)piperidin-1-yl)pyrimidine-4-carboxamide] | 1 to 100
1 to 31.6 nM | O=C(NCCO)c1ccnc(N2CCC(C(=O)N3N=CC[C@H]3c3ccccc3)CC2)n1 [Example 126, (S)-N-(2-hydroxyethyl)-2-(4-(5-phenyl-4,5-dihydro-1H-pyrazole-1-carbonyl)piperidin-1-yl)pyrimidine-4-carboxamide] | 1 to 100
1 to 31.6 nM and 1 to 10 nM | O=C(C1CCN(c2ncc(F)c(OCCN3CCOCC3)n2)CC1)N1N=CC[C@H]1c1ccccc1 [Example 127, (S)-(1-(5-fluoro-4-(2-morpholinoethoxy)pyrimidin-2-yl)piperidin-4-yl)(5-phenyl-4,5-dihydro-1H-pyrazol-1-yl)methanone] | 1 to 100
1 to 31.6 nM | O=C(C1CCN(c2ncc(O)cn2)CC1)N1N=CC[C@H]1c1ccccc1 [Example 128, (S)-(1-(5-hydroxypyrimidin-2-yl)piperidin-4-yl)(5-phenyl-4,5-dihydro-1H-pyrazol-1-yl)methanone] | 1 to 100
1 to 31.6 nM | O=C(C1CCN(c2nccc(CO)n2)CC1)N1N=CC[C@H]1c1ccccc1 [Example 130, (S)-(1-(4-(hydroxymethyl)pyrimidin-2-yl)piperidin-4-yl)(5-phenyl-4,5-dihydro-1H-pyrazol-1-yl)methanone] | 1 to 100
1 to 31.6 nM and 1 to 10 nM | N#Cc1coc(N2CCC(C(=O)N3N=CC[C@H]3c3ccccc3)CC2)n1 [Example 137, (S)-2-(4-(5-phenyl-4,5-dihydro-2H-pyrazole-1-carbonyl)piperidin-1-yl)oxazole-4-carbonitrile] | 1 to 100
1 to 31.6 nM and 1 to 10 nM | N#Cc1cnc(N2CCC(C(=O)N3N=CC[C@H]3c3ccccc3)CC2)o1 [Example 138, (S)-2-(4-(5-phenyl-4,5-dihydro-1H-pyrazole-1-carbonyl)piperidin-1-yl)oxazole-5-carbonitrile] | 1 to 100
1 to 31.6 nM and 1 to 10 nM | O=C(C1CCN(c2nccc(C3=NCCN3)n2)CC1)N1N=CC[C@H]1c1ccccc1 [Example 140, (S)-(1-(4-(4,5-dihydro-1H-imidazol-2-yl)pyrimidin-2-yl)piperidin-4-yl)(5-phenyl-4,5-dihydro-1H-pyrazol-1-yl)methanone] | 1 to 100
1 to 31.6 nM | CN1CCN(C(=O)c2ccnc(N3CCC(C(=O)N4N=CC[C@H]4c4ccccc4)CC3)n2)CC1 [Example 141, (S)-(4-methylpiperazin-1-yl)(2-(4-(5-phenyl-4,5-dihydro-1H-pyrazole-1-carbonyl)piperidin-1-yl)pyrimidin-4-yl)methanone] | 1 to 100
1 to 31.6 nM and 1 to 10 nM | CCN(CC)C(=O)c1ccnc(N2CCC(C(=O)N3N=CC[C@H]3c3ccccc3)CC2)n1 [Example 142, (S)-N,N-diethyl-2-(4-(5-phenyl-4,5-dihydro-1H-pyrazole-1-carbonyl)piperidin-1-yl)pyrimidine-4-carboxamide] | 1 to 100
1 to 31.6 nM | CC(=O)N1CCC(NC(=O)c2ccnc(N3CCC(C(=O)N4N=CC[C@H]4c4ccccc4)CC3)n2)CC1 [Example 144, (S)-N-(1-acetylpiperidin-4-yl)-2-(4-(5-phenyl-4,5-dihydro-1H-pyrazole-1-carbonyl)piperidin-1-yl)pyrimidine-4-carboxamide] | 1 to 100
1 to 31.6 nM | O=C(c1ccnc(N2CCC(C(=O)N3N=CC[C@H]3c3ccccc3)CC2)n1)N1CCOCC1 [Example 145, (S)-(1-(4-(morpholine-4-carbonyl)pyrimidin-2-yl)piperidin-4-yl)(5-phenyl-4,5-dihydro-1H-pyrazol-1-yl)methanone] | 1 to 100

Further lines, the molecule ahead of its results:

Compound | IC50 (RIP1 kinase) | IC50 [1] [nM]
O=C(C1CCN(c2nccc(=O)[nH]2)CC1)N1N=CC[C@H]1c1cc(F)cc(F)c1 [Example 97, (S)-2-(4-(5-(3,5-difluorophenyl)-4,5-dihydro-1H-pyrazole-1-carbonyl)piperidin-1-yl)pyrimidin-4(3H)-one] | 1 to 31.6 nM | 1 to 100
Nc1cc(N2CCC(C(=O)N3N=CC[C@H]3c3cc(F)cc(F)c3)CC2)ncn1 [Example 98, (S)-(1-(6-aminopyrimidin-4-yl)piperidin-4-yl)(5-(3,5-difluorophenyl)-4,5-dihydro-1H-pyrazol-1-yl)methanone] | 1 to 31.6 nM and 1 to 10 nM | 1 to 100
COc1nccc(N2CCC(C(=O)N3N=CC[C@H]3c3cc(F)cc(F)c3)CC2)n1 [Example 99, (S)-(5-(3,5-difluorophenyl)-4,5-dihydro-1H-pyrazol-1-yl)(1-(2-methoxypyrimidin-4-yl)piperidin-4-yl)methanone] | 1 to 31.6 nM and 1 to 10 nM | 1 to 100
CNc1nccc(N2CCC(C(=O)N3N=CC[C@H]3c3cc(F)cc(F)c3)CC2)n1 [Example 100, (S)-(5-(3,5-difluorophenyl)-4,5-dihydro-1H-pyrazol-1-yl)(1-(2-(methylamino)pyrimidin-4-yl)piperidin-4-yl)methanone] | 1 to 31.6 nM | 1 to 100
COc1cnc(N2CCC(C(=O)N3N=CC[C@H]3c3cc(F)ccc3F)CC2)nc1 [Example 101, (S)-(5-(2,5-difluorophenyl)-4,5-dihydro-1H-pyrazol-1-yl)(1-(5-methoxypyrimidin-2-yl)piperidin-4-yl)methanone] | 1 to 31.6 nM and 1 to 10 nM | 1 to 100
N#Cc1cnc(N2CCC(C(=O)N3N=CC[C@H]3c3cc(F)ccc3F)CC2)cn1 [Example 103, (S)-5-(4-(5-(2,5-difluorophenyl)-4,5-dihydro-1H-pyrazole-1-carbonyl)piperidin-1-yl)pyrazine-2-carbonitrile] | 1 to 31.6 nM and 1 to 10 nM | 1 to 100
COc1cc(N2CCC(C(=O)N3N=CC[C@H]3c3cc(F)ccc3F)CC2)ncn1 [Example 105, (S)-(5-(2,5-difluorophenyl)-4,5-dihydro-1H-pyrazol-1-yl)(1-(6-methoxypyrimidin-4-yl)piperidin-4-yl)methanone] | 1 to 31.6 nM and 1 to 10 nM | 1 to 100
CCOC(=O)c1coc(N2CCC(C(=O)N3N=CC[C@H]3c3cc(F)cc(F)c3)CC2)n1 [Example 106, (S)-ethyl 2-(4-(5-(3,5-difluorophenyl)-4,5-dihydro-1H-pyrazole-1-carbonyl)piperidin-1-yl)oxazole-4-carboxylate] | 1 to 31.6 nM and 1 to 10 nM | 1 to 100
Nc1nc(N2CCC(C(=O)N3N=CC[C@H]3c3cncc(F)c3)CC2)ncc1F [Example 112, (S)-(1-(4-amino-5-fluoropyrimidin-2-yl)piperidin-4-yl)(5-(5-fluoropyridin-3-yl)-4,5-dihydro-1H-pyrazol-1-yl)methanone] | 1 to 31.6 nM | 1 to 100
N#Cc1nccc(N2CCC(C(=O)N3N=CC[C@H]3c3cncc(F)c3)CC2)n1 [Example 115, (S)-4-(4-(5-(5-fluoropyridin-3-yl)-4,5-dihydro-1H-pyrazole-1-carbonyl)piperidin-1-yl)pyrimidine-2-carbonitrile] | 1 to 31.6 nM | 1 to 100
O=C(C1CCN(c2ccn3nccc3n2)CC1)N1N=CC[C@H]1c1cncc(F)c1 [Example 116, (S)-(5-(5-fluoropyridin-3-yl)-4,5-dihydro-1H-pyrazol-1-yl)(1-(pyrazolo[1,5-a]pyrimidin-5-yl)piperidin-4-yl)methanone] | 1 to 31.6 nM | 1 to 100
O=C(C1CCN(c2ccc3nccn3n2)CC1)N1N=CC[C@H]1c1cncc(F)c1 [Example 117, (S)-(5-(5-fluoropyridin-3-yl)-4,5-dihydro-1H-pyrazol-1-yl)(1-(imidazo[1,2-b]pyridazin-6-yl)piperidin-4-yl)methanone] | 1 to 31.6 nM | 1 to 100
NC(=O)c1cnc(N2CCC(C(=O)N3N=CC[C@H]3c3cc(F)ccc3F)CC2)nc1 [Example 123, (S)-2-(4-(5-(2,5-difluorophenyl)-4,5-dihydro-1H-pyrazole-1-carbonyl)piperidin-1-yl)pyrimidine-5-carboxamide] | 1 to 31.6 nM | 1 to 100
N#Cc1cnc(N2CCC(C(=O)N3N=CC[C@H]3c3cc(F)cc(F)c3)CC2)o1 [Example 133, (S)-2-(4-(5-(3,5-difluorophenyl)-4,5-dihydro-1H-pyrazole-1-carbonyl)piperidin-1-yl)oxazole-5-carbonitrile] | 1 to 31.6 nM and 1 to 10 nM | 1 to 100
NC(=O)c1coc(N2CCC(C(=O)N3N=CC[C@H]3c3cc(F)cc(F)c3)CC2)n1 [Example 134, (S)-2-(4-(5-(3,5-difluorophenyl)-4,5-dihydro-1H-pyrazole-1-carbonyl)piperidin-1-yl)oxazole-4-carboxamide] | 1 to 31.6 nM | 1 to 100
N#Cc1coc(N2CCC(C(=O)N3N=CC[C@H]3c3cc(F)cc(F)c3)CC2)n1 [Example 135, (S)-2-(4-(5-(3,5-difluorophenyl)-4,5-dihydro-1H-pyrazole-1-carbonyl)piperidin-1-yl)oxazole-4-carbonitrile] | 1 to 31.6 nM and 1 to 10 nM | 1 to 100
O=C(C1CCN(c2ncc3[nH]cnc3n2)CC1)N1N=CC[C@H]1c1cc(F)cc(F)c1 [Example 139, (S)-(1-(7H-purin-2-yl)piperidin-4-yl)(5-(3,5-difluorophenyl)-4,5-dihydro-1H-pyrazol-1-yl)methanone] | 1 to 31.6 nM | 1 to 100
